Earlier results in PMC4629263 (Acta Pharmaceutica Sinica. B, 2015).

Columns and labels:
[1] = room temperature
[2] = mice

Structure (SMILES)	Stability in aqueous solution [1]	LD50 [2] [mg/kg]	pKa
COc1cc(N)c2c(c1O)-c1c(OC)c(OC)cc3c1[C@H](C2)N(C)CC3 [8-amino-isocorydine]	not stable		
COc1ccc2c(c1O)-c1c(OC)c(OC)cc3c1[C@H](C2)N(C)CC3 [ICD, Isocorydine]		32.2	7.16
